Here are results for 14 compounds from patent US20240417387A1, “SULFONYLPIPERAZINYL COMPOUNDS FOR TREATMENT OF BACTERIAL INFECTIONS” (Hoffmann-La Roche Inc., priority 2021, published 2024).

≈ marks a conversion by molar mass, not a printed value.

In series [1] the test system is Escherichia coli BW 25113. In words: Minimal Inhibitory Concentration (MIC) broth dilution assay, E. coli BW 25113. The format is cell-based. Conditions: Escherichia coli, BW25113, 20 hours at 35° C., CAMHB, read-out: MIC E. coli K-12 BW 25113. On the procedure: (§1) The antibacterial activity of molecules was evaluated against the commonly used quality control strain Escherichia coli BW 25113, Escherichia coli ATCC 25922 and the rifampin-resistant mutant strain Klebsiella pneumonia ATCC 43816. Escherichia co/i BW 25113 was obtained from the Coli Genetic Stock Center (CGSC) (strain 7636). Both Escherichia coli ATCC 25922 and Klebsiella pneumonia ATCC 43816 were originally derived from human clinical samples and are available from ATCC (American Type Culture Collection). The in vitro potency of compounds to inhibit Escherichia coli (BW 25113, ATCC 25922) and Klebsiella pneumonia (ATCC 43816) growth was assessed by the MIC (Minimal Inhibitory Concentration) broth dilution method. Specifically compound dilutions were prepared from 10 mM DMSO stock solutions as follows: i) serial 2-fold dilution in 20 μL DMSO were prepared in a master plate (Greiner, Cat No: 651201), ii) 180 μL sterile distilled water was added to each aliquot and iii) 10 μL diluted compounds were transferred into a new assay plate (Costar, 3599).
(§2) Vials of each test microorganisms were maintained frozen in the vapor phase of a liquid nitrogen freezer. Single-use frozen vials of the three strains Escherichia coli BW 25113, Escherichia coli ATCC 25922 (KWTKSTTK, 0335K) and Klebsiella pneumonia ATCC 43816, with predetermined CFU/mL, were taken out from the freezer, thawed at room temperature, and diluted in Cation-Adjusted Mueller Hinton Broth (CAMVIHB) to achieve a final inoculum of 5×10^5 CFU/mL. 90 μL bacteria containing broth was dispensed to the assay plate containing the pre-dispensed compound dilutions and mixed by pipetting 5 times.
(§3) Then the assay plates were incubated for 20 hours at 35° C. in ambient air. Following incubation, the MIC […], the lowest concentration of drug that inhibits visible growth of the microorganism was read with the help of a magnification mirror and recorded.
In general terms: Broth dilution looks for growth in wells or tubes with falling amounts of substance.

The test system of series [2] is Escherichia coli ATCC 25922. Description: Minimal Inhibitory Concentration (MIC) broth dilution assay, E. coli ATCC 25922. The format is cell-based. The settings on record: Escherichia coli, ATCC25922, 20 h, read-out: MIC E. coli ATCC 25922. On the procedure: as §1, §2, §3
In series [3] the test system is Klebsiella pneumonia ATCC 43816. Description: Minimal Inhibitory Concentration (MIC) broth dilution assay, K. pneumonia ATCC 43816. The format is cell-based. The settings on record: Klebsiella pneumoniae, ATCC43816, 20 hours at 35° C., CAMHB, read-out: MIC K. p ATCC 43816. How it is done:
as §1, §2, §3

Series [4] is described as follows: Human microsome stability assay. Conditions: human liver microsomes 0.5 mg/mL, 37° C., pH 7.4, NADPH regenerating system. The format is in vitro ADME. On the procedure:
The human microsomal stability assay is used for early assessment of metabolic stability of a test compound in human liver microsomes.
Human liver microsomes (Cat.NO.: 452117, Corning, USA) were preincubated with test compound for 10 minutes at 37° C. in 100 mM potassium phosphate buffer, pH 7.4. The reactions were initiated by adding NADPH regenerating system. The final incubation mixtures contained 1 µM test compound, 0.5 mg/mL liver microsomal protein, 1 mM MgCl2, 1 mM NADP, 1 unit/mL isocitric dehydrogenase and 6 mM isocitric acid in 100 mM potassium phosphate buffer, pH 7.4. After incubation times of 0, 3, 6, 9, 15 and 30 minutes at 37° C., 300 μL of cold acetonitrile (including internal standard) was added to 100 μL incubation mixture to terminate the reaction. Following precipitation and centrifugation, the amount of compound remaining in the samples were determined by LC-MS/MS. Controls of no NADPH regenerating system at zero and 30 minutes were also prepared and analyzed. […] (Human microsome clearance: <7 mL/min/kg: low; 7-16.2 mL/min/kg: medium; >16.2 mL/min/kg: high)
Background: Microsomes from liver hold many membrane-bound enzymes, among them those of drug oxidation.

Regarding `NC1CC(=O)N(c2ccc(S(=O)(=O)N3CCN(c4cc(C(F)(F)c5ccc(C(=O)NCCCO)cc5)cc(Cl)n4)CC3)cc2)C1` (stereo not shown) [Example 015, 4-[[2-[4-[4-(4-amino-2-oxo-pyrrolidin-1-yl)phenyl]sulfonylpiperazin-1-yl]-6-chloro-4-pyridyl]-difluoro-methyl]-N-(3-hydroxypropyl)benzamide], the MIC in series [1], in series [2] and in series [3] was 0.7 µg/mL (≈ 1.06 µM) throughout. The “Clearance of Human microsome” value in series [4] is given as 9.58 mL/min/kg.
Turning to `NCCCNC(=O)c1ccc(C(F)(F)c2cc(Cl)nc(N3CCN(S(=O)(=O)c4ccc(N5CC(N)CC5=O)cc4)CC3)c2)cc1` (stereo not shown) [Example 016, 4-[[2-[4-[4-(4-amino-2-oxo-pyrrolidin-1-yl)phenyl]sulfonylpiperazin-1-yl]-6-chloro-4-pyridyl]-difluoro-methyl]-N-(3-aminopropyl)benzamide], the MIC in series [1], in series [2] and in series [3] was 0.35 µg/mL (≈ 0.529 µM) throughout. Also, the “Clearance of Human microsome” value in series [4] is 8.63 mL/min/kg.
As for `NCCNC(=O)c1ccc(C(F)(F)c2cc(Cl)nc(N3CCN(S(=O)(=O)c4ccc(N5CC(N)CC5=O)cc4)CC3)c2)cc1` (stereo not shown) [Example 017, N-(2-aminoethyl)-4-[[2-[4-[4-(4-amino-2-oxo-pyrrolidin-1-yl)phenyl]sulfonylpiperazin-1-yl]-6-chloro-4-pyridyl]-difluoro-methyl]benzamide], the minimal inhibitory concentration (MIC) (commonly the lowest concentration that inhibits growth of the organism) in series [1] was found to be 0.35 µg/mL (≈ 0.54 µM); in series [2] it was 0.3 µg/mL (≈ 0.463 µM); in series [3] it was 0.45 µg/mL (≈ 0.694 µM). In series [4], the “Clearance of Human microsome” value came to 9.36 mL/min/kg.
Turning to `NCC(O)CNC(=O)c1ccc(C(F)(F)c2cc(Cl)nc(N3CCN(S(=O)(=O)c4ccc(N5CC(N)CC5=O)cc4)CC3)c2)cc1` (stereo not shown) [Example 018, N-(3-amino-2-hydroxy-propyl)-4-[[2-[4-[4-(4-amino-2-oxo-pyrrolidin-1-yl)phenyl]sulfonylpiperazin-1-yl]-6-chloro-4-pyridyl]-difluoro-methyl]benzamide], the MIC in series [1], in series [2] and in series [3] was 0.62 µg/mL (≈ 0.914 µM) throughout. Besides, in series [4], the “Clearance of Human microsome” value is on record as 6.15 mL/min/kg.
With `NCC(O)CNC(=O)c1ccc(C(F)(F)c2cc(Cl)nc(N3CCN(S(=O)(=O)c4ccc(N5C[C@H](N)CC5=O)cc4)CC3)c2)cc1` (stereo partly drawn) [Example 019, N-(3-amino-2-hydroxy-propyl)-4-[[2-chloro-6-[4-[4-[(4R)-4-amino-2-oxo-pyrrolidin-1-yl]phenyl]sulfonylpiperazin-1-yl]-4-pyridyl]-difluoro-methyl]benzamide], the MIC in series [1] was found to be 0.35 µg/mL (≈ 0.516 µM); in series [2] it was 0.71 µg/mL (≈ 1.05 µM); in series [3], 0.35 µg/mL (≈ 0.516 µM). In addition, in series [4], the “Clearance of Human microsome” value turned out to be 10.63 mL/min/kg.
Regarding `NCCNC(=O)[C@H]1CC[C@H](C(F)(F)c2cc(Cl)nc(N3CCN(S(=O)(=O)c4ccc(N5C[C@H](N)CC5=O)cc4)CC3)c2)CC1` [Example 041, Trans-N-(2-aminoethyl)-4-[[2-chloro-6-[4-[4-[(4R)-4-amino-2-oxo-pyrrolidin-1-yl]phenyl]sulfonylpiperazin-1-yl]-4-pyridyl]-difluoro-methyl]cyclohexanecarboxamide], the MIC in series [1], in series [2] and in series [3] was 0.54 µg/mL (≈ 0.825 µM) in each case. In series [4], the “Clearance of Human microsome” value amounted to 9.73 mL/min/kg.
For `NCCCN(CCCN)C(=O)C12CCC(C(F)(F)c3cc(Cl)nc(N4CCN(S(=O)(=O)c5ccc(N6C[C@H](N)CC6=O)cc5)CC4)c3)(CC1)C2` [Example 046], the MIC in series [1] came out at 2.4 µg/mL (≈ 3.26 µM); in series [2], 1.2 µg/mL (≈ 1.63 µM); in series [3] it was 1.2 µg/mL (≈ 1.63 µM). Besides, the “Clearance of Human microsome” value in series [4] was found to be 6.15 mL/min/kg.
For `NCCCNC(=O)C1C[C@@H]2CC[C@H]1CC2C(F)(F)c1cc(Cl)nc(N2CCN(S(=O)(=O)c3ccc(N4C[C@H](N)CC4=O)cc3)CC2)c1` (stereo partly shown) [Example 053], the MIC turned out to be 0.55 µg/mL (≈ 0.792 µM) in series [1], 0.57 µg/mL (≈ 0.821 µM) in series [2] and 0.54 µg/mL (≈ 0.778 µM) in series [3]. In addition, the “Clearance of Human microsome” value in series [4] amounted to 6.15 mL/min/kg.
For the compound `C[C@H]1C[C@H](N)CN1C(=O)[C@H]1CC[C@H](C(F)(F)c2cc(Cl)nc(N3CCN(S(=O)(=O)c4ccc(N5C[C@H](N)CC5=O)cc4)CC3)c2)CC1` [Example 064, (4R)-4-amino-1-[4-[4-[4-[[4-[(2S,4S)-4-amino-2-methyl-pyrrolidine-1-carbonyl]cyclohexyl]-difluoro-methyl]-6-chloro-2-pyridyl]piperazin-1-yl]sulfonylphenyl]pyrrolidin-2-one], the MIC in series [1] was found to be 0.67 µg/mL (≈ 0.965 µM); in series [2], 0.57 µg/mL (≈ 0.821 µM); in series [3], 0.57 µg/mL (≈ 0.821 µM). The “Clearance of Human microsome” value in series [4] was found to be 6.15 mL/min/kg.
Take `C[N+](CCN)(CCN)CCCNC(=O)[C@H]1CC[C@H](C(F)(F)c2cc(Cl)nc(N3CCN(S(=O)(=O)c4ccc(N5C[C@H](N)CC5=O)cc4)CC3)c2)CC1` [Example 065, Trans-bis(2-aminoethyl)-[3-[[4-[[2-[4-[4-[(4R)-4-amino-2-oxo-pyrrolidin-1-yl]phenyl]sulfonylpiperazin-1-yl]-6-chloro-4-pyridyl]-difluoro-methyl]cyclohexanecarbonyl]amino]propyl]-methyl-ammonium]: the MIC in series [1], in series [2] and in series [3] was 0.66 µg/mL each time. Further, the “Clearance of Human microsome” value in series [4] turned out to be 8.21 mL/min/kg.
As for `NC[C@@H]1CN(C(=O)[C@H]2CC[C@H](C(F)(F)c3cc(Cl)nc(N4CCN(S(=O)(=O)c5ccc(N6C[C@H](N)CC6=O)cc5)CC4)c3)CC2)C[C@@H]1CN` [Example 067, Trans-(4R)-4-amino-1-[4-[4-[4-[[4-[cis-3,4-bis(aminomethyl)pyrrolidine-1-carbonyl]cyclohexyl]-difluoro-methyl]-6-chloro-2-pyridyl]piperazin-1-yl]sulfonylphenyl]pyrrolidin-2-one], the MIC in series [1] amounted to 0.59 µg/mL (≈ 0.816 µM); in series [2], 0.3 µg/mL (≈ 0.415 µM); in series [3], 0.57 µg/mL (≈ 0.788 µM). Besides, the “Clearance of Human microsome” value in series [4] came to 6.15 mL/min/kg.
The corresponding values for `C[C@H]1CNC[C@@H]1NC(=O)[C@H]1CC[C@H](C(F)(F)c2cc(Cl)nc(N3CCN(S(=O)(=O)c4ccc(N5C[C@H](N)CC5=O)cc4)CC3)c2)CC1` [Example 068, Trans-4-[[2-[4-[4-[(4R)-4-amino-2-oxo-pyrrolidin-1-yl]phenyl]sulfonylpiperazin-1-y1]-6-chloro-4-pyridy1]-difluoro-methyl]-N-[(3R,4S)-4-methylpyrrolidin-3-yl]cyclohexanecarboxamide] are 0.32 µg/mL (≈ 0.461 µM), 0.32 µg/mL (≈ 0.461 µM), 0.32 µg/mL (≈ 0.461 µM) and 9.49 mL/min/kg.
Turning to `CN[C@@H]1CC(=O)N(c2ccc(S(=O)(=O)N3CCN(c4cc(C(F)(F)[C@H]5CC[C@H](C(=O)NCCCN)CC5)cc(Cl)n4)CC3)cc2)C1` [Example 069, Trans-N-(3-aminopropyl)-4-[[2-chloro-6-[4-[4-[(4R)-4-(methylamino)-2-oxo-pyrrolidin-1-yl]phenyl]sulfonylpiperazin-1-y1]-4-pyridyl]-difluoro-methyl]cyclohexanecarboxamide], the MIC in series [1], in series [2] and in series [3] was 0.56 µg/mL (≈ 0.821 µM) throughout. Also, the “Clearance of Human microsome” value in series [4] is given as 10.85 mL/min/kg.
In the case of `NC[C@@H]1CN([C@@H]2CC[C@H](NC(=O)[C@H]3CC[C@H](C(F)(F)c4cc(Cl)nc(N5CCN(S(=O)(=O)c6ccc(N7C[C@H](N)CC7=O)cc6)CC5)c4)CC3)C2)C[C@@H]1CN` [Example 080, Trans-4-[[2-[4-[4-[(4R)-4-amino-2-oxo-pyrrolidin-1-yl]phenyl]sulfonylpiperazin-1-yl]-6-chloro-4-pyridyl]-difluoro-methyl]-N-[(1S,3R)-3-[cis-3,4-bis(aminomethyl)pyrrolidin-1-yl]cyclopentyl]cyclohexanecarboxamide], the MIC stood at 0.33 µg/mL (≈ 0.409 µM) in series [1], 0.33 µg/mL (≈ 0.409 µM) in series [2] and 0.99 µg/mL (≈ 1.23 µM) in series [3].
